Where two headings read alike, the source gives them in different places.
Tests used:
[1] = NPP maximal electroshock seizure (MES) protection; type: in vivo, white male mice of the Carworth Farm Strain CF-1; conditions: Mus musculus, ip; conducted at 30 mg/kg i.p.
[2] = NPP lethality (estimated LD50); conditions: mouse, in vivo, ip
[3] = NINCDS Maximal Electroshock Seizure Test (MES); type: in vivo, mice; conditions: for minimal effective dose: read-out: MES: dosage level that elicited protection
Method: 1. Neurological Activity Tests. […] Compounds were evaluated for anticonvulsant activity in two seizure models, the maximal electroshock seizure (MES) test and the subcutaneous pentylenetetrazol (Metrazol) seizure threshold (scMet) test.
The Maximal Electroshock Seizure Test was performed according to the method described by Swinyard and coworkers,* wherein a drop of 0.9% saline is instilled in each eye prior to application of corneal electrodes. Seizures are elicited with a 50 Hz alternating current of 50 mA (5 to 7 times that necessary to elicit minimal electroshock seizures) delivered for 0.2 sec via corneal electrodes. This stimulus will produce a maximal seizure in all normal mice. The maximal seizure typically consists of a short period of initial tonic flexion and a prolonged period of hind limb tonic extension, followed by terminal clonus. The seizure lasts about 22 seconds. Abolition of the hind limb tonic extensor component of the seizure is defined as protection and indicates anticonvulsant activity in the test compound.
The ability of a compound to prevent maximal electroshock seizures is believed to correlate with its ability to prevent the spread of seizure discharge through neural tissue. Activity against maximal electroshock seizures is thought to indicate potential efficacy in the treatment of major motor (grand mal) seizures. […] Selective action in the test is believed to indicate potential efficacy against absence (petit mal) seizures.
As described earlier, the MES, scMet and Rotorod tests were performed one-half hour and four hours after administration of each compound.
In the Secondary Evaluation, median effective doses (ED50) are determined in the MES, scMet and Rotorod assays using the procedures defined in Pharmacology, 95, 99-113 (1949).
(§1) Separate groups of animals are used for each time period. The times of peak toxic and anticonvulsant effect are taken from the resulting graph of percent of animals responding vs. time, and the determinations of median effective doses are performed at those times.

[4] = NINCDS rotorod ataxia test (minimal neurotoxicity); type: in vivo, mice; conditions: mouse, in vivo, ip; secondary evaluation, at time of peak effect
Method: (§2) 1. Neurological Activity Tests. The biological testing program is designed to evaluate the following four aspects of drug action: (1) the existence and specificity of anticonvulsant activity; (2) the toxicity, particularly to the central nervous system; and, if the results of (1) and (2) are favorable, (3) the potency and protective index, a comparison between toxic and effective dose and (4) the time course of activity. Compounds were evaluated for anticonvulsant activity in two seizure models, the maximal electroshock seizure (MES) test and the subcutaneous pentylenetetrazol (Metrazol) seizure threshold (scMet) test.
Central nervous system toxicity was evaluated in the rotorod ataxia test. This test is designed to detect minimal neurotoxicity. The animal is placed on a 1-inch diameter knurled plastic rod rotating at 6 rpm. Normal mice can remain indefinitely on a rod rotating at this speed. Neurological deficit is defined as the failure of the animal to remain on the rod for at least 1 minute. This test has a clear end-point, is quantifiable and correlates well with the clinical assessment of minimal toxicity.
(§3) Specific anticonvulsant evaluations performed by NINCDS using MES, scMet and Rotorod assays are presented in Tables III & IV for fourteen new compounds as well as several known compounds. Table III centers attention on 2-substituted-3-o-tolyl-4-(3H)-quinazolinones while Table IV includes the findings for various other 2,3-disubstituted-4(3H)-quinazolinones. As described earlier, the MES, scMet and Rotorod tests were performed one-half hour and four hours after administration of each compound. The tables identify the dosage level that elicited a positive result, such as protection against MES and scMet induced seizures, or loss of balance on the rotorod.
In the Secondary Evaluation, median effective doses (ED50) are determined in the MES, scMet and Rotorod assays using the procedures defined in Pharmacology, 95, 99-113 (1949). In addition, each compound's anticonvulsant activity and neurotoxicity over time are determined by measuring the effect of an intraperitoneally administered estimated median effective dose on maximal electroshock seizures and rotorod performance at intervals of 1/2, 1, 2, 3, 4, 6 and 8 hours.
as §1

[5] = NINCDS primary evaluation, overall classification; type: in vivo, mice; conditions: mouse, in vivo
Method: as §2, §3

## O=C(Cc1nc2ccccc2c(=O)n1-c1ccccc1Cl)c1ccncc1 [IVd, 2-[2-Oxo-2-(4-pyridyl)ethyl]-3-o-chlorophenyl-4(3H)-quinazolinone]
[1]
  responders at 30 mg/kg: 50%
[2]
  LD50 at 48 h: 237 mg/kg
[3]; Mus musculus, ip, after 0.5 hr
  minimal effective dose: 300 mg/kg
[3]; Mus musculus, ip, after 4 hr (value in parentheses)
  minimal effective dose: 100 mg/kg
[3]; Mus musculus, ip, secondary evaluation, at time of peak effect
  ED50: 33.5 mg/kg
[3]; secondary evaluation
  MES protective index compared with methaqualone: approximately four-fold higher
  PI MES (Protective Index = TD50/ED50): 4.08
  potency against electroshock-induced (MES) seizures compared with methaqualone: more potent
[3]; vs Ethotoin, Mephenytoin, Phenobarbital, Metharbital, Trimethadione, Paramethadione, Methsuximide, Phensuximide, Diazepam, Clonazepam
  MES protective index compared with commercial agents: higher MES protective index
[4]
  TD50: 137 mg/kg
[5]
  dosage for useful anticonvulsant activity relative to dosage for sedative-hypnotic activity: fourfold lower

From patent US4183931A, “2-Ketoalkyl-4(3H)-quinazolinones” (Research Corporation, priority 1977, dated 1980)
